Assay results from ChEMBL document CHEMBL4184180, “Antitussive and expectorant activities of licorice and its major compounds” (2018).
Activity calls are given as the source filed them. The rule behind the calls is not given here.

How the values were obtained:
Mus musculus [1] = assay: Expectorant activity in ICR mouse assessed as phenol red secretion in trachea at 20 to 50 mg/kg, po for 3 days followed by phenol red treatment at 30 mins post last dose measured after 30 mins by UV-Vis spectrophotometric assay relative to control; type: functional
Mus musculus [2] = assay: Antitussive activity in ammonia liquor-induced cough ICR mouse model assessed as reduction in cough frequency at 50 mg/kg, po treated with ammonia 1 hr before and 1 hr after test compound dosing measured for 3 mins in presence of ATP-sensitive K+ channel blocker glibenclamide relative to control; type: functional
Mus musculus [3] = assay: Antitussive activity in ammonia liquor-induced cough ICR mouse model assessed as reduction in cough frequency at 50 mg/kg, po treated with ammonia 1 hr before and 2.5 hrs after test compound dosing measured for 3 mins relative to control; type: functional
Mus musculus [4] = assay: Antitussive activity in ammonia liquor-induced cough ICR mouse model assessed as reduction in cough frequency at 50 mg/kg, po treated with ammonia 1 hr before and 1 hr after test compound dosing measured for 3 mins in presence of 5-HT receptor antagonist methysergide relative to control; type: functional
Mus musculus [5] = assay: Antitussive activity in ammonia liquor-induced cough ICR mouse model assessed as reduction in cough frequency at 50 mg/kg, po treated with ammonia 1 hr before and 1 to 5 hrs after test compound dosing measured for 3 mins in presence of opioid receptor antagonist naloxone relative to control; type: functional, organism-based
Mus musculus [6] = assay: Antitussive activity in ammonia liquor-induced cough ICR mouse model assessed as reduction in cough frequency at 50 mg/kg, po treated with ammonia 1 hr before and 5 hrs after test compound dosing measured for 3 mins relative to control; type: functional
Mus musculus [7] = assay: Antitussive activity in ammonia liquor-induced cough ICR mouse model assessed as reduction in cough frequency at 50 mg/kg, po treated with ammonia 1 hr before and 1 to 5 hrs after test compound dosing measured for 3 mins relative to control; type: functional; set-up: scale not given: the % may be the effect or the level left
Mus musculus [8] = assay: Expectorant activity in ICR mouse assessed as increase in phenol red secretion in trachea at 50 mg/kg, po for 3 days followed by phenol red treatment at 30 mins post last dose measured after 30 mins by UV-Vis spectrophotometric assay relative to control; type: functional
Mus musculus [9] = assay: Antitussive activity in ammonia liquor-induced cough ICR mouse model assessed as reduction in cough frequency at 20 mg/kg, po treated with ammonia 1 hr before and 2.5 hrs after test compound dosing measured for 3 mins; type: functional, organism-based
Mus musculus [10] = assay: Antitussive activity in ammonia liquor-induced cough ICR mouse model assessed as reduction in cough frequency at 20 mg/kg, po treated with ammonia 1 hr before and 1 hr after test compound dosing measured for 3 mins; type: functional, organism-based
Mus musculus [11] = assay: Antitussive activity in ammonia liquor-induced cough ICR mouse model assessed as reduction in cough frequency at 20 mg/kg, po treated with ammonia 1 hr before and 5 hrs after test compound dosing measured for 3 mins; type: functional, organism-based
Mus musculus [12] = assay: Antitussive activity in ammonia liquor-induced cough ICR mouse model assessed as reduction in cough frequency at 50 mg/kg, po treated with ammonia 1 hr before and 1 hr after test compound dosing measured for 3 mins relative to control; type: functional
Mus musculus [13] = assay: Antitussive activity in ammonia liquor-induced cough ICR mouse model assessed as increase in latent period at 20 mg/kg, po treated with ammonia 1 hr before and 1 to 5 hrs after test compound dosing measured at 1 hr post dose; type: functional, organism-based
Mus musculus [14] = assay: Antitussive activity in ammonia liquor-induced cough ICR mouse model assessed as reduction in cough frequency at 20 mg/kg, po treated with ammonia 1 hr before and 1 to 5 hrs after test compound dosing measured for 3 mins relative to control; type: functional, organism-based
Mus musculus [15] = assay: Antitussive activity in ammonia liquor-induced cough ICR mouse model assessed as increase in latent period at 50 mg/kg, po treated with ammonia 1 hr before and 1 to 5 hrs after test compound dosing measured for 3 mins relative to control; type: functional
Mus musculus [16] = assay: Antitussive activity in ammonia liquor-induced cough ICR mouse model assessed as increase in latent period at 50 mg/kg, po treated with ammonia 1 hr before and 1 hr after test compound dosing measured at 1 hr post dose; type: functional, organism-based

For `O=C1C[C@@H](c2ccc(O[C@@H]3O[C@H](CO)[C@@H](O)[C@H](O)[C@H]3O)cc2)Oc2cc(O)ccc21` [LIQUIRITIN], the Activity (Mus musculus [1]) was 249.8%, the Activity (Mus musculus [2]) was “inactive” and the Activity (Mus musculus [3]) was “Active”. For the same molecule, the Activity (Mus musculus [4]) was “inactive”, the Activity (Mus musculus [5]) was “Active” and the Activity (Mus musculus [6]) was “Active”. For the same molecule, the Activity (Mus musculus [7]) was 30 - 78% and the “fold change (FC)” value (Mus musculus [8]) was 2.5.

`O=C(/C=C/c1ccc(O[C@@H]2O[C@H](CO)[C@@H](O)[C@H](O)[C@H]2O)cc1)c1ccc(O)cc1O` was tested, and the Activity (Mus musculus [9]) was “inactive”, the Activity (Mus musculus [3]) was “inactive” and the Activity (Mus musculus [10]) was “inactive”. For the same molecule, the Activity (Mus musculus [6]) was “inactive”, the Activity (Mus musculus [11]) was “inactive” and the Activity (Mus musculus [12]) was “inactive”.

`CC(C)=CCc1cc2c(=O)cc(-c3ccc(O)cc3)oc2cc1O` was tested, and the Activity (Mus musculus [9]) was “inactive”, the Activity (Mus musculus [3]) was “inactive” and the Activity (Mus musculus [10]) was “inactive”. For the same molecule, the Activity (Mus musculus [6]) was “inactive”, the Activity (Mus musculus [11]) was “inactive” and the Activity (Mus musculus [12]) was “inactive”.

In the case of `CC1(C)C=Cc2c(ccc3c2OC[C@@H](c2ccc(O)cc2O)C3)O1`, the Activity (Mus musculus [3]) is reported as “Active”.

`O=C1C[C@@H](c2ccc(O[C@@H]3O[C@H](CO)[C@@H](O)[C@H](O)[C@H]3O[C@@H]3OC[C@](O)(CO)[C@H]3O)cc2)Oc2cc(O)ccc21` was tested, and the Activity (Mus musculus [1]) was 196.6%, the Activity (Mus musculus [2]) was 28.2% and the Activity (Mus musculus [13]) was “inactive”. For the same molecule, the Activity (Mus musculus [14]) was “Active”, the “fold change (FC)” value (Mus musculus [15]) was 1.3 - 1.9 and the Activity (Mus musculus [4]) was 30%. The Activity (Mus musculus [5]) was “Active”, the Activity (Mus musculus [7]) was 30 - 78% and the “fold change (FC)” value (Mus musculus [8]) was 1.97. The Activity (Mus musculus [12]) was 79.1%.

In the case of `COc1ccccc1OCC(O)CO` (stereo not given) [GUAIFENESIN], the Activity (Mus musculus [1]) is reported as 299.5% and the “fold change (FC)” value (Mus musculus [8]) is reported as 3.

In the case of `CC1(C)[C@@H](O[C@H]2O[C@H](C(=O)O)[C@@H](O)[C@H](O)[C@H]2O[C@@H]2O[C@H](C(=O)O)[C@@H](O)[C@H](O)[C@H]2O)CC[C@]2(C)[C@H]3C(=O)C=C4[C@@H]5C[C@@](C)(C(=O)O)CC[C@]5(C)CC[C@@]4(C)[C@]3(C)CC[C@@H]12`, the Activity (Mus musculus [9]) is reported as “inactive”, the Activity (Mus musculus [3]) is reported as “inactive” and the Activity (Mus musculus [10]) is reported as “inactive”. For the same molecule, the Activity (Mus musculus [6]) was “inactive”, the Activity (Mus musculus [11]) was “inactive” and the Activity (Mus musculus [8]) was “inactive”. The Activity (Mus musculus [12]) was “inactive”.

For `CC1(C)[C@@H](O)CC[C@]2(C)[C@H]3C(=O)C=C4[C@@H]5C[C@@](C)(C(=O)O)CC[C@]5(C)CC[C@@]4(C)[C@]3(C)CC[C@@H]12` [ENOXOLONE], the Activity (Mus musculus [7]) was 27 - 40% and the Activity (Mus musculus [8]) was “inactive”.

With `CCN(CC)CCOCCOC(=O)C1(c2ccccc2)CCCC1.O=C(O)CC(O)(CC(=O)O)C(=O)O` [CARBETAPENTANE CITRATE] the Activity (Mus musculus [3]) was 53%, the Activity (Mus musculus [16]) was “Active” and the Activity (Mus musculus [6]) was 50%. For the same molecule, the Activity (Mus musculus [12]) was 58%.

`COc1c(CC=C(C)C)c(O)cc2oc(=O)c(-c3ccc(O)cc3O)cc12` was tested, and the Activity (Mus musculus [9]) was “inactive”, the Activity (Mus musculus [3]) was “inactive” and the Activity (Mus musculus [10]) was “inactive”. For the same molecule, the Activity (Mus musculus [6]) was “inactive”, the Activity (Mus musculus [11]) was “inactive” and the Activity (Mus musculus [12]) was “inactive”.

In the case of `O=C1C[C@@H](c2ccc(O)cc2)Oc2cc(O)ccc21` [LIQUIRTIGENIN], the Activity (Mus musculus [1]) is reported as 156.7%, the Activity (Mus musculus [2]) is reported as “inactive” and the Activity (Mus musculus [4]) is reported as “inactive”. For the same molecule, the Activity (Mus musculus [5]) was “Active”, the Activity (Mus musculus [6]) was “Active” and the Activity (Mus musculus [7]) was 30 - 78%. For the same molecule, the “fold change (FC)” value (Mus musculus [8]) was 1.57.

With `C=CC(C)(C)c1cc(/C=C/C(=O)c2ccc(O)cc2)c(OC)cc1O` the Activity (Mus musculus [9]) was “inactive”, the Activity (Mus musculus [3]) was “inactive” and the Activity (Mus musculus [10]) was “inactive”. The Activity (Mus musculus [6]) was “inactive”, the Activity (Mus musculus [11]) was “inactive” and the Activity (Mus musculus [12]) was “inactive”.

With `O=C(/C=C/c1ccc(O)cc1)c1ccc(O)cc1O` the Activity (Mus musculus [9]) was “Active”, the Activity (Mus musculus [3]) was “Active” and the Activity (Mus musculus [10]) was “inactive”. The Activity (Mus musculus [6]) was “Active”, the Activity (Mus musculus [11]) was “Active” and the Activity (Mus musculus [8]) was “inactive”. The Activity (Mus musculus [12]) was “inactive”.

For `CC(C)=CCc1cc(-c2coc3cc(O)c(CC=C(C)C)c(O)c3c2=O)cc(O)c1O`, the Activity (Mus musculus [9]) was “inactive”, the Activity (Mus musculus [3]) was “inactive” and the Activity (Mus musculus [10]) was “inactive”. For the same molecule, the Activity (Mus musculus [6]) was “inactive”, the Activity (Mus musculus [11]) was “inactive” and the Activity (Mus musculus [12]) was “inactive”.

`COc1cc(O)ccc1/C=C/C(=O)c1ccc(O)cc1` was tested, and the Activity (Mus musculus [9]) was “inactive”, the Activity (Mus musculus [3]) was “inactive” and the Activity (Mus musculus [10]) was “inactive”. The Activity (Mus musculus [6]) was “inactive”, the Activity (Mus musculus [11]) was “inactive” and the Activity (Mus musculus [12]) was “inactive”.

In the case of `O=C(/C=C/c1ccc(O[C@H]2O[C@@H](CO)[C@H](O)[C@@H](O)[C@@H]2O[C@@H]2OC[C@](O)(CO)[C@H]2O)cc1)c1ccc(O)cc1O`, the Activity (Mus musculus [9]) is reported as “inactive”, the Activity (Mus musculus [3]) is reported as “inactive” and the Activity (Mus musculus [10]) is reported as “Active”. For the same molecule, the Activity (Mus musculus [6]) was “inactive”, the Activity (Mus musculus [11]) was “inactive” and the Activity (Mus musculus [12]) was “Active”.
